In patent publication US20140358576A1, “SYSTEM AND METHOD FOR SURVEILLANCE AND EVALUATION OF SAFETY RISKS ASSOCIATED WITH MEDICAL INTERVENTIONS” (Adverse Events, Inc., priority 2013, published 2014):
Structures can show the parent of a compound that is named as a salt. Where two headings read alike, the source gives them in different places. Numbered stars: 1 amine (or outer) side, 2 acyl side, 3 side chain; on linkers, the order of the positions; unused ones are H or OH. Bridge positions count the residues as written; N and C are the ends. Square brackets hold non-standard residues; d marks the D form. Peptide text beside a SMILES is read from it. * marks the point of attachment. hTyr(3S-OH,4S-OH,3'-OSO3H) = N[C@H](C(=O)O)[C@H](O)[C@@H](O)c1ccc(O)c(OS(=O)(=O)O)c1; Orn(4R-OH,5R-OH) = O=C([C@H](C[C@@H](O)[C@@H](O)N[*:3])N[*:1])[*:2]; Pro(3S-OH,4S-Me) = C[C@H]1CN[C@H](C(=O)O)[C@H]1O; X1 = CCCCCOc1ccc(-c2cc(-c3ccc(C(=O)*)cc3)no2)cc1; Gln(3R-OH) = NC(=O)C[C@@H](O)[C@H](N)C(=O)O; Hyp = O=C(O)[C@@H]1C[C@@H](O)CN1

What was measured:
[1] = human
[2] = for Condition Seriousness: Example 1 component score, up to 8.68 points; for Adverse Event Seriousness / Literature / Outcome / ROR / RxScore: human

SMILES | Adverse Event Seriousness [1] | Outcome [1] | ROR [1] | RxScore [1] | further results
O=C1CN=C(c2ccccc2Cl)c2cc([N+](=O)[O-])ccc2N1 [clonazepam] | 11.38 | 15.34 | 3.43 | 51.36 | –
CC[C@H]1OC(=O)[C@H](C)[C@@H](O[C@H]2C[C@@](C)(OC)[C@@H](O)[C@H](C)O2)[C@H](C)[C@@H](O[C@@H]2O[C@H](C)C[C@H](N(C)C)[C@H]2O)[C@](C)(O)C[C@@H](C)CN(C)[C@H](C)[C@@H](O)[C@]1(C)O [azithromycin] | – | – | 13.60 | – | –
CCCC(C)(COC(N)=O)COC(=O)NC(C)C (stereo not drawn) [carisoprodol] | 17.03 | 26.05 | 9.07 | 83.70 | –
CC(C)(N)Cc1ccccc1 [phentermine] | – | – | 12.22 | – | –
CC1(C)O[C@@H]2[C@@H](CO[C@@]3(COS(N)(=O)=O)OC(C)(C)O[C@@H]23)O1 [topiramate] | 11.28 | 11.96 | 4.29 | 47.54 | –
NCC1(CC(=O)O)CCCCC1 [gabapentin] | 9.67 | 11.51 | 2.86 | 43.00 | –
Nc1cccc2c1C(=O)N(C1CCC(=O)NC1=O)C2=O (stereo not drawn) [pomalidomide] | – | 25.31 | – | – | –
O=C1CCC(N2C(=O)c3ccccc3C2=O)C(=O)N1 (stereo not drawn) [thalidomide] | 17.30 | 22.64 | – | – | –
NC(=O)OCC(COC(N)=O)c1ccccc1 [felbamate] | 7.72 | 14.26 | 2.81 | 43.92 | –
C#Cc1cccc(Nc2ncnc3cc(OCCOC)c(OCCOC)cc23)c1 [erlotinib hydrochloride] | 18.95 | – | – | – | –
CCN(CC)CCNC(=O)c1cc(Cl)c(N)cc1OC [metoclopramide] | – | – | – | – | Condition Seriousness [2]: 7.15; Adverse Event Seriousness [2]: 4.46; Literature [2]: 12.5; Outcome [2]: 15.38; ROR [2]: 12.97; RxScore [2]: 78.08
CCCCCC(=O)O[C@]1(C(C)=O)CC[C@H]2[C@@H]3CCC4=CC(=O)CC[C@]4(C)[C@H]3CC[C@@]21C [hydroxyprogesterone caproate] | – | – | 12.09 | – | –
CN[C@@H](C)Cc1ccccc1 [methamphetamine hydrochloride] | 15.73 | 20.20 | 12.29 | 78.80 | –
CC(C)C[C@H](CN)CC(=O)O [pregabalin] | 7.13 | 8.25 | 2.21 | 36.30 | –
CS(=O)(=O)OCCCCOS(C)(=O)=O [busulfan] | – | – | – | – | Condition Seriousness [2]: 2.52; Adverse Event Seriousness [2]: 14.67; Literature [2]: 12.5; Outcome [2]: 15.73; ROR [2]: 7.15; RxScore [2]: 86.04
C=CC[C@@H]1/C=C(\C)C[C@H](C)C[C@H](OC)[C@H]2O[C@@](O)(C(=O)C(=O)N3CCCC[C@H]3C(=O)O[C@H](/C(C)=C/[C@@H]3CC[C@@H](O)[C@H](OC)C3)[C@H](C)[C@@H](O)CC1=O)[C@H](C)C[C@@H]2OC [tacrolimus] | – | – | – | – | Condition Seriousness [2]: 3.13; Adverse Event Seriousness [2]: 14.77; Literature [2]: 9.3; Outcome [2]: 15.75; ROR [2]: 4.09; RxScore [2]: 78.26
COC(=O)C(c1ccccc1)C1CCCCN1 (stereo not drawn) [methylphenidate] | – | – | 13.69 | – | –
CCC1(c2ccccc2)C(=O)NCNC1=O [primidone] | 8.70 | 10.86 | 3.59 | 42.07 | –
O=P(O)(O)C(O)(Cn1ccnc1)P(=O)(O)O [zoledronic acid (Zometa), zoledronic acid] | 14.61 | 7.55 | 10.08 | 53.50 | –
O=C1CCCC(=O)C1C(=O)c1ccc(C(F)(F)F)cc1[N+](=O)[O-] [nitisinone] | 15.20 | 23.09 | 5.32 | 74.78 | –
CCCC(CCC)C(=O)O [divalproex sodium] | 8.51 | 11.14 | 3.85 | 41.09 | –
CC(=O)O[C@]1(C(C)=O)CC[C@H]2[C@@H]3C[C@H](C)C4=CC(=O)CC[C@]4(C)[C@H]3CC[C@@]21C [medroxyprogesterone acetate] | 19.89 | – | 12.89 | – | –
CCCCCN(C)CCC(O)(P(=O)(O)O)P(=O)(O)O [ibandronate sodium] | 10.42 | 13.02 | 3.13 | 45.79 | –
O=C1NC(c2ccccc2)(c2ccccc2)C(=O)N1COP(=O)(O)O [fosphenytoin sodium] | 8.16 | 15.85 | 5.09 | 46.69 | –
C=CC(N)CCC(=O)O (stereo not drawn) [vigabatrin] | 13.32 | 13.81 | 4.80 | 51.42 | –

SMILES | Adverse Event Seriousness [1] | Outcome [1] | ROR [1] | RxScore [1] | further results
CCCCCOc1ccc(-c2cc(-c3ccc(C(=O)N[C@H]4C[C@@H](O)[C@@H](O)NC(=O)[C@@H]5[C@@H](O)[C@@H](C)CN5C(=O)[C@H]([C@H](O)CC(N)=O)NC(=O)[C@H]([C@H](O)[C@@H](O)c5ccc(O)c(OS(=O)(=O)O)c5)NC(=O)[C@@H]5C[C@@H](O)CN5C(=O)[C@H]([C@@H](C)O)NC4=O)cc3)no2)cc1 [micafungin sodium] (X1-[Orn(4R-OH,5R-OH)]T[Hyp][hTyr(3S-OH,4S-OH,3'-OSO3H)][Gln(3R-OH)][Pro(3S-OH,4S-Me)]; lactam 1-C) | – | 22.48 | – | – | –
Nc1nc(Cl)nc2c1ncn2[C@@H]1O[C@H](CO)[C@@H](O)[C@@H]1F [clofarabine] | – | 23.27 | – | – | –
O=P(O)(O)C(O)(Cn1ccnc1)P(=O)(O)O [zoledronic acid (Reclast), zoledronic acid] | 12.33 | 16.89 | 3.53 | 53.23 | –
CCCC(CCC)C(=O)O [valproic acid] | 12.54 | 16.41 | 5.34 | 54.78 | –
CN(C)CCC=C1c2ccccc2C=Cc2ccccc21 [cyclobenzaprine hydrochloride] | 12.25 | 22.45 | 6.09 | 72.46 | –
N#Cc1ccccc1-c1cc(-c2ccccn2)cn(-c2ccccc2)c1=O [perampanel] | 7.92 | 14.67 | 3.53 | 47.40 | –
CN1CCN(C2=Nc3cc(Cl)ccc3Nc3ccccc32)CC1 [clozapine] | 16.28 | 23.55 | – | – | –
C[C@H]1[C@H](NC(=O)/C(=N\OC(C)(C)C(=O)O)c2csc(N)n2)C(=O)N1S(=O)(=O)O [aztreonam] | 14.58 | 22.41 | 5.83 | 75.34 | –
C=C[C@]1(C)C[C@@H](OC(=O)CS[C@@H]2C[C@H]3CC[C@@H](C2)N3C)[C@]2(C)[C@H](C)CC[C@]3(CCC(=O)[C@H]32)[C@@H](C)[C@@H]1O [retapamulin] | – | – | 12.35 | – | –
NS(=O)(=O)Cc1noc2ccccc12 [zonisamide] | 11.03 | 13.71 | 4.73 | 49.83 | –
CC(C)C[C@H](NC(=O)[C@H](CCc1ccccc1)NC(=O)CN1CCOCC1)C(=O)N[C@@H](Cc1ccccc1)C(=O)N[C@@H](CC(C)C)C(=O)[C@@]1(C)CO1 [carfilzomib] | – | 22.81 | – | – | –
CN1CCC(=C2c3ccccc3CCn3c(C=O)cnc32)CC1 [alcaftadine] | – | – | 12.53 | – | –
Cc1nnc2n1-c1ccc(Cl)cc1C(c1ccccc1)=NC2 [alprazolam] | 13.30 | 21.02 | 6.40 | 72.84 | –
CN1C(=O)C(O)N=C(c2ccccc2)c2cc(Cl)ccc21 (stereo not drawn) [temazepam] | 12.79 | 22.08 | 5.17 | 72.69 | –
NCCC(O)(P(=O)(O)O)P(=O)(O)O [pamidronate disodium] | 12.75 | 6.73 | 11.49 | 51.86 | –
Cc1ccsc1C(=CCCN1CCC[C@@H](C(=O)O)C1)c1sccc1C [tiagabine hydrochloride] | 10.82 | 12.04 | 6.41 | 48.70 | –
CCCCC[C@H](O)/C=C/[C@H]1[C@H](O)CC(=O)[C@@H]1C/C=C\CCCC(=O)O [dinoprostone] | 15.66 | 19.09 | 10.62 | 74.95 | –
[N]=O [nitric oxide] | 19.58 | – | – | – | –
O=C1NC(=O)C(c2ccccc2)(c2ccccc2)N1 [phenytoin sodium] | 8.38 | 12.65 | 5.12 | 44.47 | –
Nc1nnc(-c2cccc(Cl)c2Cl)c(N)n1 [lamotrigine] | 8.89 | 10.41 | 3.57 | 42.04 | –
C[C@]12CC[C@@H]3c4ccc(O)cc4CC[C@H]3[C@@H]1CC[C@@H]2O [estradiol] | 20.16 | – | 13.26 | – | –
CC(OC(=O)NCC1(CC(=O)O)CCCCC1)OC(=O)C(C)C (stereo not drawn) [gabapentin enacarbil] | 4.67 | 7.53 | 2.64 | 42.19 | –
CCC1(C)CC(=O)NC1=O (stereo not drawn) [ethosuximide] | 7.71 | 10.64 | 2.92 | 41.01 | –
CNC[C@H](O)c1ccc(O)c(O)c1 [epinephrine injection, epinephrine] | 4.69 | 21.03 | 16.91 | 73.02 | –
CCCC(CCC)C(=O)[O-].[Na+] [valproate sodium] | 10.26 | 13.09 | 5.64 | 48.83 | –
